In publication PMC10413441 (Chembiochem : a European journal of chemical biology, 2023):

Key:
[1] = tested on: YAP1 phosphorylation at S127; experiment: immunoblot analysis of Hippo signaling in CUTO9 cells; type: cell-based, human; conditions: 2 hours, brigatinib, lorlatinib 3 μM each, MRT67307 1 μM
CUTO9 cells = experiment: wound-healing assay in CUTO9 cells; type: cell-based, human; conditions: for suppression of cell migration (wound closure) / impact on wound closure: 24 hours; for inhibition at 1 µM: Homo sapiens, 24 h, read-out: inhibition of wound closure
A549 NSCLC cells = experiment: wound-healing assay in A549 cells; conditions: for wound closure inhibition: A549 cells (no EML4-ALK, mutant KRAS), 48 hours
MARK2/3 = experiment: immunoblotting of cross-competition pulldowns; type: binding, human; conditions: CUTO9 cells pre-treated with 2.5 μM TKI for 24 hours, immunoblot
[2] = cited from earlier work
MARK2 = conditions: read-out: reported in vitro IC50; cited from earlier work
MARK3 = conditions: read-out: previously reported in vitro IC50; cited from earlier work

O=C(NCCCNc1nc(Nc2cccc(CN3CCOCC3)c2)ncc1C1CC1)C1CCC1 [MRT67307]
phosphorylation of YAP1 at S127 [1]: induced phosphorylation of YAP1 at S127
reduction of cell migration (CUTO9 cells; CUTO9 cells, 1 μM): approximately 25%
reduction of cell migration (CUTO9 cells; CUTO9 cells, 3 μM): ~40%

CCc1cc2c(cc1N1CCC(N3CCOCC3)CC1)C(C)(C)c1[nH]c3cc(C#N)ccc3c1C2=O [alectinib]
suppression of cell migration (wound closure) (CUTO9 cells; CUTO9 cells, 3 μM): ~45%
inhibition at 1 µM (CUTO9 cells): ~30%
wound closure inhibition (A549 NSCLC cells): wound closure inhibition observed
competition for binding of MARK2/3 to i-brigatinib beads (MARK2/3): more completely competed

COc1cc(N2CCC(N3CCN(C)CC3)CC2)ccc1Nc1ncc(Cl)c(Nc2ccccc2P(C)(C)=O)n1 [brigatinib]
phosphorylation of YAP1 at S127 [1]: induced phosphorylation of YAP1 at S127
suppression of cell migration (wound closure) (CUTO9 cells; CUTO9 cells, 3 μM): approximately 70%
inhibition at 1 µM (CUTO9 cells): ~40%
competition for EML4-ALK (EML4-ALK): strongest extent of competition
reported clinically relevant concentration ([2]; clinical): 2.9 µM
Cmax ([2]; read-out: plasma Cmax, reported, no reference given): 2500 nM
IC50 (MARK2): 93 nM
IC50 (MARK3): 127 nM
wound closure inhibition (A549 NSCLC cells): wound closure inhibition observed
competition for binding of MARK2/3 to i-brigatinib beads (MARK2/3): more completely competed

C[C@@H](Oc1cc(-c2cnn(C3CCNCC3)c2)cnc1N)c1c(Cl)ccc(F)c1Cl [crizotinib]
impact on wound closure (CUTO9 cells; CUTO9 cells): no impact on wound closure

CNC(=O)c1ccc(Nc2ncc(C(F)(F)F)c(NCc3nccnc3N(C)S(C)(=O)=O)n2)cc1 [defactinib]
effects on migration (CUTO9 cells; CUTO9 cells): minor, but notable effects
effects on migration (A549 NSCLC cells; A549 cells): minor, but notable effects

C[C@H]1Oc2cc(cnc2N)-c2c(nn(C)c2C#N)CN(C)C(=O)c2ccc(F)cc21 [lorlatinib]
phosphorylation of YAP1 at S127 [1]: not observed
impact on wound closure (CUTO9 cells; CUTO9 cells): no impact on wound closure
